# Where no end group is shown, it is not given here.
# Target: T1, RNase A (Bos taurus, UniProt P61823)
# T1 sequence (P61823 27-150): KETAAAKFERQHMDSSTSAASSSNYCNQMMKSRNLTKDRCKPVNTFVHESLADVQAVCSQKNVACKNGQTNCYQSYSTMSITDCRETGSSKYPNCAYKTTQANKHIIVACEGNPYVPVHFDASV
# Test: RNase activity test kit, modified Taq-man RNA probe analysis (ab273299)
# Type: biochemical
# Design: purchased Abcam ab273299
# Conditions: for inhibition at 1 µM: inhibitor 1 μM, after 60 minutes, positive control (no inhibitor) = 100%, read-out: relative inhibition level / reduction of RNase A activity; for RNase A activity reduced by: summary paragraph, peptide 1 μM, versus non-inhibitory condition (100%); for IC50: synthetic peptides, RNA probe kit, linear regression
# Method: The activity of RNase A, which degrades RNA, was evaluated using specially designed RNA probes. This RNase A analysis was performed using a commercial RNase activity test kit based on a modified Taq-man probe analysis (ab273299) from Abcam (Cambridge, UK). To compare inhibitory activity, three synthetic peptides (peptide-1, peptide-2, peptide-3) and three expressed Fv-antibodies (Fv-1, Fv-2, and Fv-3) were compared using two types of commercially available RNase inhibitors from Biofact™ (Daejeon, South Korea) and two types of RNaseOUT™ from Thermofisher (USA). The probes for the RNase inhibition analysis contained RNA probes with fluorescent dyes and quenching materials at each end of the RNA sequence. […] To estimate the RNase A inhibitory activity by the three synthesized peptides, each peptide was treated at a concentration of 1 μM using the analysis kit, and RNase activity was measured. The positive control was prepared to have an RNase reaction without an inhibitor, and the negative control was prepared to have an RNase reaction without the RNA probe. […] The RNase A inhibitory activity of the three synthesized peptides was analyzed after treating each peptide at a concentration range of 100 μM to 1 μM in the assay kit. […] The RNase A inhibitory activity of the three expressed Fv-antibodies was analyzed after treating each peptide at a concentration range of 100 μM to 1 μM in the analysis kit.
# The activity of RNase A, which degrades RNA, was evaluated using specially designed RNA probes. This RNase A analysis was performed using a commercial RNase activity test kit based on a modified Taq-man probe analysis (ab273299) from Abcam (Cambridge, UK). For the comparison of inhibitory activity, three synthetic peptides (Peptide-1, Peptide-2, Peptide-3) and three expressed Fv-antibodies (Fv-1, Fv-2, and Fv-3) were compared using two types of commercially available RNase inhibitors from Biofact™ (Daejeon, South Korea) and two types of RNaseOUT™ from Thermofisher (USA). The probes for the RNase inhibition analysis contain RNA probes with fluorescent dyes and fluorescent quenchers at each end of the RNA nucleotide sequence.
# To estimate the RNase A inhibitory activity of the three synthesized peptides, each peptide was treated at a concentration of 1 μM using an assay kit, and the RNase activity was evaluated. The positive control was prepared to have an RNase reaction without the inhibitor, while the negative control was prepared to have an RNase reaction without the RNA probe.
# The RNase A inhibitory activity of the three synthesized peptides was analyzed after treating each peptide at a concentration range of 100 μM to 1 μM with the RNase A from the assay kit.
inhibition at 1 µM [%],RNase A activity reduced by [%],IC50 [µM],Sequence
54.4,54.4,8.1,CGPDSDVMTDF [Peptide-1]
50.3,50.3,0.4,DGTAKKSRKDD [Peptide-3]

Sequence,inhibition at 1 µM [%],RNase A activity reduced by [%],IC50 [µM]
YGPVGRVKRDD [Peptide-2],53.2,53.2,3.6

# — patent publication US20260217863A1, “ANTIBODY OR PEPTIDE BINDING SPECIFICALLY TO RNASE A, IMMUNOASSAY DEVICE AND METHOD FOR DETECTING RNASE A, AND METHOD FOR COLLECTING RNASE A” (UIF (University Industry Foundation), Yonsei University, priority 2022, published 2026)
